Values joined by “and” are separate entries in the source; they are usually repeats but may differ in a detail not shown here. Identical values can stand only once.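 Values below derive from 48-hour exposures of cells grown in 96-well plates, with endpoints linearly interpolated between the two concentrations bracketing the appropriate inhibition level. Here, GI50 denotes the concentration required for 50% inhibition of growth. TGI is the concentration that stops growth completely.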
Tested on: MDA-MB-468 breast
Experiment: NCI tumour cell line growth inhibition, 48 h

Row | Structure (SMILES) | GI50 | TGI
1 | CCOC(=O)Nc1nc2ccc(OC)cc2s1 | 69.4 µM | > 100 µM
2 | CCCCCCCCCCCCCCCCCC1=NC(C)(C)CN1CC(C)O (configuration not stated) | 12.1 µM | 24.4 µM
3 | Nc1nonc1-c1nc2cnccc2n1C1CC1 | 1.96 µM | 10.1 µM
4 | CC(C)Nc1cc(-c2c[nH]c(C(=O)N[C@H](CO)c3cccc(Cl)c3)c2)c(Cl)cn1 | 3.54 µM and 5.12 µM | 18.3 µM and > 10 µM
5 | CC(C)c1cnn2c(NCc3ccccc3)cc(NC[C@H]3CCNC[C@@H]3O)nc12 | 0.381 µM and 0.519 µM | 1.79 µM and 2.33 µM
6 | CCOC(=O)C(Cc1c[nH]c2c(N(CCO)CCO)cccc12)(NC(C)=O)C(=O)OCC |  | 132 µM
7 | COc1ccc(-c2ccncc2)cc1C(N)=O | > 25 µM | > 25 µM
8 | COc1ccc(-c2cs/c(=N\N=C\c3ccc(O)cc3O)n2/N=C/c2ccc(O)cc2O)cc1 | 1.96 µM | 5.68 µM
9 | Cc1ncc(C(=O)Nc2ccc(CN3CCN(C)CC3)c(C(F)(F)F)c2)cc1C#Cc1cnc2cccnn12 | 1.11 µM | 3.41 µM
10 | O=C(/C=C/C12c3ccccc3C(c3ccccc31)C1C(=O)NC(=O)C12)c1ccc(Cl)cc1Cl (configuration not stated) | 1.96 µM | 4.13 µM
11 | O=C1/C(=C/c2cccc(Br)c2)COc2ccc(O)cc21 | 1.75 µM | 4.33 µM
12 | COc1ccc2c(=O)cc(-c3ccccc3)[nH]c2c1 | 0.887 µM | > 100 µM
13 | FC(F)(c1ccc2ncccc2c1)c1nnc2ccc(-c3ccncc3)nn12 | 53.5 µM | > 100 µM
14 | Cc1nc(N)nc2c1CCC(O)S2 (configuration not stated) | 2.74 µM | 13 µM
15 | O=C(/C=C/c1ccccc1)C(Br)C(Br)c1ccccc1 (configuration not stated) | 1.31 µM | 3.48 µM
16 | CC(C)c1c(-c2ccccc2)nc2c(C#N)c[nH]n2c1=O | 19.1 µM | 50.9 µM
17 | COc1cc2nc(SCc3cc(OC)c(OC)c(OC)c3)n(Cc3ccccc3)c(=O)c2cc1OC | 0.307 µM | 1.91 µM
18 | CCC(O)c1ccc(Br)cc1NC(=O)c1cccc(Cl)c1 (configuration not stated) | 20.3 µM | 56.5 µM
19 | Cn1c(C(=O)c2ccncc2)cc2ccccc21 | 32.3 µM | > 100 µM
20 | COc1cc2ncn(-c3cc(OCc4ccccc4C(F)(F)F)c(C(=O)N(C)C)s3)c2cc1OC | 7.66 µM | > 14.7 µM
21 | O=c1c2cc(F)ccc2sc2c(N3CCNCC3)nc3ccc(F)cc3c12 | 1.58 µM | 3.05 µM
22 | CCCCCCCCOC(=O)CC[C@@H](C)[C@H]1CC[C@H]2[C@@H]3[C@H](OC(=O)CCN)C[C@@H]4C[C@H](OC(=O)CCN)CC[C@]4(C)[C@H]3C[C@H](OC(=O)CCN)[C@]12C | 2.49 µM | 7.17 µM
23 | CC(=O)c1ccc2c(c1)C1C=CCC1[C@H](c1cc3c(cc1Br)OCO3)N2 (some centres not stated) | 0.308 µM | 
24 | O=[N+]([O-])c1cc(Cl)c2[nH]c3c(Cl)cc([N+](=O)[O-])cc3c2c1 | 0.169 µM | 2.26 µM
25 | CCNc1cc(-c2cccc(OC(F)(F)F)c2)nc2ccc(N3CCCC3)cc12 | 1.4 µM | 3.35 µM
26 | COc1cc(OC)c(C(=O)/C=C/c2cc3c(cc2OCc2ccccc2)OC(C)(C)CC3)cc1CC=C(C)C | 1.86 µM | 7.84 µM
27 | CC[C@H](Nc1ncnc2nc[nH]c12)c1nc2cccc(F)c2c(=O)n1-c1ccccc1 | 2.1 µM | 10.4 µM
28 | CN(Cc1cnc2nc(N)nc(N)c2n1)c1ccc(C(=O)N[C@@H](CCC(=O)O)C(=O)O)cc1 |  | > 250 µM
29 | O=S(=O)(NCCNc1nccc(-c2c(-c3ccc(F)c(O)c3)nc3sccn23)n1)c1ccc(F)cc1 | 2.97 µM | 25.5 µM
30 | COc1cc(F)c(F)c(Nc2ccc(I)cc2F)c1NS(=O)(=O)C1(C[C@H](O)CO)CC1 | > 5.95 µM | > 10 µM
